We go through five compounds from ChEMBL document CHEMBL5465560, “Selectivity Literature for EUbOPEN Chemogenomic Library” (2024).

The target in experiment [1] is T1, Serine/threonine-protein kinase DCLK1 (Homo sapiens) (UniProt O15075).
T1 sequence (whole entry): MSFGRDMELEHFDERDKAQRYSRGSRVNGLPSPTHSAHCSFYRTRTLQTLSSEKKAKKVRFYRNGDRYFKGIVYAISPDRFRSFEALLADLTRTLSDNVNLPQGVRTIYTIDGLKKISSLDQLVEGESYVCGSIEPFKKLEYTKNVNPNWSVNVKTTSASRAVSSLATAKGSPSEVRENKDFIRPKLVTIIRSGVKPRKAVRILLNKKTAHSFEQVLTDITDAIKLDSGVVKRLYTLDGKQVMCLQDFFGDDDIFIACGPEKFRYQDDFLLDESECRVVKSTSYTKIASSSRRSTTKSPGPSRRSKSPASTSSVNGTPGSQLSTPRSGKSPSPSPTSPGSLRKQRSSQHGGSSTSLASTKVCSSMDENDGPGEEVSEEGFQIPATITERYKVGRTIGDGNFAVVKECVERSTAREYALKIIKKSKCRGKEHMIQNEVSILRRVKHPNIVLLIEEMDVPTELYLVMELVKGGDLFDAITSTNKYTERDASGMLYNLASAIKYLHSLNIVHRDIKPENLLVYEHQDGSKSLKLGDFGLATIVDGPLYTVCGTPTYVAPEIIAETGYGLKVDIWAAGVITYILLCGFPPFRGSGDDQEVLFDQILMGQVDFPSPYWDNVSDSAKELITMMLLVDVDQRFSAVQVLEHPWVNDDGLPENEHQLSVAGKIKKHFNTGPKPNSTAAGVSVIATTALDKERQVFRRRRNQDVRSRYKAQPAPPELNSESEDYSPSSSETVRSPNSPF
The conditions noted are these: at 10 µM.

In experiment [2] the test system is Proto-oncogene tyrosine-protein kinase receptor Ret (Homo sapiens), P07949 [M918T]. Particulars: at 10 µM.
In experiment [3] the target is T2, Mitogen-activated protein kinase kinase kinase 2 (Homo sapiens) (UniProt Q9Y2U5).
T2 sequence (whole entry): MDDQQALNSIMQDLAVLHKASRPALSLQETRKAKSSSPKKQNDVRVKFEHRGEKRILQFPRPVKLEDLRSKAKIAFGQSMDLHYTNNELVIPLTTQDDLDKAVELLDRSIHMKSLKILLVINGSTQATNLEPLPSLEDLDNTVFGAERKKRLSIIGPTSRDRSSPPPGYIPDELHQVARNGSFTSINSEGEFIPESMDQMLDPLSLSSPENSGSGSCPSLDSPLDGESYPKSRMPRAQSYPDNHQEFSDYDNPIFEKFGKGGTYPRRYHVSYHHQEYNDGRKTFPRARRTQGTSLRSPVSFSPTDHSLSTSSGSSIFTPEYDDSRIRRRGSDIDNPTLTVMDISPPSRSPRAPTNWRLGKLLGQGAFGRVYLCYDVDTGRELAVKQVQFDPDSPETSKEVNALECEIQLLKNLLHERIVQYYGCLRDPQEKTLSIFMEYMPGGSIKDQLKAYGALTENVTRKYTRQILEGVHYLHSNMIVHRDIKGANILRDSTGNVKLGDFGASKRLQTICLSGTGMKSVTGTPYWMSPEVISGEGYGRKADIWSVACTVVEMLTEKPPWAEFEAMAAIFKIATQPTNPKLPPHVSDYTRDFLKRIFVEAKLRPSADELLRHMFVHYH
The experiment in a line: Selectivity interaction (ActivX KiNativ screen (kinase selectivity in THP-1 cell lysates)) EUB0000639a MAP3K2. In kind it is subcellular. The conditions noted are these: lysate.

The target in experiment [4] is Ribosomal protein S6 kinase alpha-1 (Homo sapiens, UniProt Q15418). Kind of experiment: Selectivity interaction (ActivX KiNativ screen (kinase selectivity in THP-1 cell lysates)) EUB0000639a RPS6KA1. The conditions noted are these: lysate, at 0.01 µM. It counts as subcellular.
Experiment [5] has as its target T3, Mitogen-activated protein kinase kinase kinase 3 (Homo sapiens) (UniProt Q99759).
T3 sequence (whole entry): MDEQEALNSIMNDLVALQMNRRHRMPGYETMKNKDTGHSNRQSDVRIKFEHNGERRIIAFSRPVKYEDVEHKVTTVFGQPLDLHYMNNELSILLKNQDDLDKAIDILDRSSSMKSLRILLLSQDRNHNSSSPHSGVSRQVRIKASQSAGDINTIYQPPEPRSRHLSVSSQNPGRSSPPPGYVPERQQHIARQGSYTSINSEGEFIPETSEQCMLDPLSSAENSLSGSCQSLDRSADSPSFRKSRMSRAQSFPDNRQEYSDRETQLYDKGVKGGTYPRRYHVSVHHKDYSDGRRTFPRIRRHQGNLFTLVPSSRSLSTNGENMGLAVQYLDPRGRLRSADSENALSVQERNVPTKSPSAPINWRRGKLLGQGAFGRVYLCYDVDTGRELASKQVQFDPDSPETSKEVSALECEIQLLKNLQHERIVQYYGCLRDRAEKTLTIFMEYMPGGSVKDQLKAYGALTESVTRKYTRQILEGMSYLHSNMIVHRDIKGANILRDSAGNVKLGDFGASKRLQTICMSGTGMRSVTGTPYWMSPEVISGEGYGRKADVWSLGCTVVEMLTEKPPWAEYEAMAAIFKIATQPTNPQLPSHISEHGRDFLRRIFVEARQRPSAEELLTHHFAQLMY
The experiment in a line: Selectivity interaction (Ambit KINOMEscan and KiNATiv profiling in Jurkat cells) EUB0000090b MAP3K3. Particulars: at 1 µM. It counts as cell-based.

In experiment [6] the target is Ephrin type-A receptor 7 (Homo sapiens) (UniProt Q15375). The experiment in a line: Selectivity interaction (KinomeScan (DiscoverX)) EUB0000618a EPHA7. The conditions noted are these: at 10 µM.
Chain of Ephrin type-A receptor 7 (Homo sapiens) (Q15375 28-998 limits assumed): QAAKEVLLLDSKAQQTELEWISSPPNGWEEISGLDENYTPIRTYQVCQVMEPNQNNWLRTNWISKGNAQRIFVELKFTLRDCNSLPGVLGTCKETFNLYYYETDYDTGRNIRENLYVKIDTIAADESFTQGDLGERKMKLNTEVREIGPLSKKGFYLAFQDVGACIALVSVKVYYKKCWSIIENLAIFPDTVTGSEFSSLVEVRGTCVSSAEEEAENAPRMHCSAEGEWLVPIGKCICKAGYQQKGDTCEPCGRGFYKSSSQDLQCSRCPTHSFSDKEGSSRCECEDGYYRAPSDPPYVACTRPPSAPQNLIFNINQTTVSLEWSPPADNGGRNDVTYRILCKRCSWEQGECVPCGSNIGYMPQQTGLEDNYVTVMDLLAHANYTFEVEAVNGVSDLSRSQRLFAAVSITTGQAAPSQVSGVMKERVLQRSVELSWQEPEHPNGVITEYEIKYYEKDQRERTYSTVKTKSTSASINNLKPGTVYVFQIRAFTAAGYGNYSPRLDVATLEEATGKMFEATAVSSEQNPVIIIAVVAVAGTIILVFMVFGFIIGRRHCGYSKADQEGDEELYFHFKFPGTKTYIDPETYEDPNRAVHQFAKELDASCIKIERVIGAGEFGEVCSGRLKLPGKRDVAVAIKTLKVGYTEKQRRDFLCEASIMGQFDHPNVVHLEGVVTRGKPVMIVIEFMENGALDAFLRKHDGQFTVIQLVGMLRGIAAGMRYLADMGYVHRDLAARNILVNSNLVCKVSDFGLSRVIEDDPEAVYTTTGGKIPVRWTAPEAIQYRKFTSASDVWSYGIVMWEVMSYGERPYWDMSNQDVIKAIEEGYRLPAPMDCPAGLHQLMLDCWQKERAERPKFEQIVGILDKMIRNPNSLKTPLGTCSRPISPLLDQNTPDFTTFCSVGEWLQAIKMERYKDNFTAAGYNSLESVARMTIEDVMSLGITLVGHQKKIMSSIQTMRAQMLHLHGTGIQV

Chain of Proto-oncogene tyrosine-protein kinase receptor Ret (Homo sapiens), P07949 [M918T] (P07949 whole entry M918T): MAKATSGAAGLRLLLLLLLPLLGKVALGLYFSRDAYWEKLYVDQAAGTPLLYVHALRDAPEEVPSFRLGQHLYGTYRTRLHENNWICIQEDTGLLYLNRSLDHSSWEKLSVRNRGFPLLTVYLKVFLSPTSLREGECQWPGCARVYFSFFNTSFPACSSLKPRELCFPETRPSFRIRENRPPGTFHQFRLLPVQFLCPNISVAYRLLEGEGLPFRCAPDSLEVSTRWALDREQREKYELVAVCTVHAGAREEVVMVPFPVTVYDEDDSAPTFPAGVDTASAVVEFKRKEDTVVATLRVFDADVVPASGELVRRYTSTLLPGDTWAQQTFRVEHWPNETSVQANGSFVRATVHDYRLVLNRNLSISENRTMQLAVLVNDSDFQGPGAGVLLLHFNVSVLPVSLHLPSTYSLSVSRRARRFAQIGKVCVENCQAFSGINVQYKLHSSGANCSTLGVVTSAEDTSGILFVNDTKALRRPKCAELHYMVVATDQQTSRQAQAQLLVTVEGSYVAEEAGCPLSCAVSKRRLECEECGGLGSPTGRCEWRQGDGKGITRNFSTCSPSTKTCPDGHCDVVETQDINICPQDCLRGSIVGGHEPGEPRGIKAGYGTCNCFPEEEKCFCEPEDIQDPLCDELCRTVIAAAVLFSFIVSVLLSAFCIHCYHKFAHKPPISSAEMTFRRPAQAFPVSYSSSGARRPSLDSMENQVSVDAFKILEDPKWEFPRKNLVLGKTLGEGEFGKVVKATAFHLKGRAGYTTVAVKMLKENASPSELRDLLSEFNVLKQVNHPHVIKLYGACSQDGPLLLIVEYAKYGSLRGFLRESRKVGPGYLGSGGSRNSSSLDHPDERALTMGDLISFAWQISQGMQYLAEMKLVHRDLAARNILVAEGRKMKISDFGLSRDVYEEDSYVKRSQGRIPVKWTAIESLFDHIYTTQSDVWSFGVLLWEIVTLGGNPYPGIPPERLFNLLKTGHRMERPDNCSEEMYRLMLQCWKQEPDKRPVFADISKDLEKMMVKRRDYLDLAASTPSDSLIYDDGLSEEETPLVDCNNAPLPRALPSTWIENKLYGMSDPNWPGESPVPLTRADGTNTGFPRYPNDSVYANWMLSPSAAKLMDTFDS
Chain of Ribosomal protein S6 kinase alpha-1 (Q15418 whole entry): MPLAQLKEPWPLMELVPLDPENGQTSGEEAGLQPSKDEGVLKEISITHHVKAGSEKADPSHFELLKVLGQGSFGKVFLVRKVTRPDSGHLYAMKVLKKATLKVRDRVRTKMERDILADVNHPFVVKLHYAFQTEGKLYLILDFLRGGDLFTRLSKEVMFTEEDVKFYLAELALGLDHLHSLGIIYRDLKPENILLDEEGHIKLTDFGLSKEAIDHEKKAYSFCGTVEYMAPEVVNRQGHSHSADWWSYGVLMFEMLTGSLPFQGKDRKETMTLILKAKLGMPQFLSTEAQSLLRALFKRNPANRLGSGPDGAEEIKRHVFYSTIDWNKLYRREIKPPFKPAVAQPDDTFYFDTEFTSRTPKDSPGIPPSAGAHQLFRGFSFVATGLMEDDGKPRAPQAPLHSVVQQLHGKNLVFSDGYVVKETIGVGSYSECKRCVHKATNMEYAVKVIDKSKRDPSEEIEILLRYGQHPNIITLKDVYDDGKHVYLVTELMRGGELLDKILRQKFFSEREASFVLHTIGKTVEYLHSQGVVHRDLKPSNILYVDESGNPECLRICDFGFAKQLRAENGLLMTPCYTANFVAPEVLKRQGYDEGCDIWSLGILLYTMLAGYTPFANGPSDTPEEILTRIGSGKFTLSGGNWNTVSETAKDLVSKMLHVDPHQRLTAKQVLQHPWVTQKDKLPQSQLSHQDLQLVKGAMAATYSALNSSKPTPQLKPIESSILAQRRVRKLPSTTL

In experiment [1], `CCN(CC)CCCCNc1ncc2cc(-c3cc(OC)cc(OC)c3)c(NC(=O)NC(C)(C)C)nc2n1` showed a % of control of 100%.

In experiment [2], `Cc1cc([C@@H](C)Nc2ccccc2C(=O)O)c2nc(N3CCOCC3)cc(=O)n2c1` [AZD-6482] showed a % of control of 100%.

On to `CC[C@@H]1[C@H](F)C(=O)N[C@@H]1COc1nccc2cc(C(N)=O)c(OC)cc12` [ZIMLOVISERTIB], for which the % of inhibition in experiment [3] (at 0.01 µM) is -0.4%; in experiment [3] (at 0.04 µM), -0.5%; in experiment [3] (at 0.2 µM) it was -5.2%; in experiment [3] (at 1 µM) it was 3%; in experiment [3] (at 5 µM), 6.3%; in experiment [4], 16.9%.

Compound `CN(C)C/C=C/C(=O)Nc1ccc(C(=O)N2CCCC(Nc3ncc(Cl)c(-c4c[nH]c5ccccc45)n3)C2)cc1` (stereo not given) showed a % of control in experiment [5] of 90%.

Regarding `O[C@H]1CC[C@H](Nc2ncc3nc(Nc4c(F)cc(F)cc4F)n([C@H]4CCOC4)c3n2)CC1`, the % of control in experiment [6] worked out at 100%.
